From ChEMBL document CHEMBL5465560, “Selectivity Literature for EUbOPEN Chemogenomic Library” (2024)

What was measured:
[1] = target: T1, Serine/threonine-protein kinase ULK2 (Homo sapiens) (UniProt Q8IYT8); assay: Selectivity interaction (KinomeScan (DiscoverX)) EUB0000229b ULK2; conditions: at 10 µM
T1 sequence (whole entry): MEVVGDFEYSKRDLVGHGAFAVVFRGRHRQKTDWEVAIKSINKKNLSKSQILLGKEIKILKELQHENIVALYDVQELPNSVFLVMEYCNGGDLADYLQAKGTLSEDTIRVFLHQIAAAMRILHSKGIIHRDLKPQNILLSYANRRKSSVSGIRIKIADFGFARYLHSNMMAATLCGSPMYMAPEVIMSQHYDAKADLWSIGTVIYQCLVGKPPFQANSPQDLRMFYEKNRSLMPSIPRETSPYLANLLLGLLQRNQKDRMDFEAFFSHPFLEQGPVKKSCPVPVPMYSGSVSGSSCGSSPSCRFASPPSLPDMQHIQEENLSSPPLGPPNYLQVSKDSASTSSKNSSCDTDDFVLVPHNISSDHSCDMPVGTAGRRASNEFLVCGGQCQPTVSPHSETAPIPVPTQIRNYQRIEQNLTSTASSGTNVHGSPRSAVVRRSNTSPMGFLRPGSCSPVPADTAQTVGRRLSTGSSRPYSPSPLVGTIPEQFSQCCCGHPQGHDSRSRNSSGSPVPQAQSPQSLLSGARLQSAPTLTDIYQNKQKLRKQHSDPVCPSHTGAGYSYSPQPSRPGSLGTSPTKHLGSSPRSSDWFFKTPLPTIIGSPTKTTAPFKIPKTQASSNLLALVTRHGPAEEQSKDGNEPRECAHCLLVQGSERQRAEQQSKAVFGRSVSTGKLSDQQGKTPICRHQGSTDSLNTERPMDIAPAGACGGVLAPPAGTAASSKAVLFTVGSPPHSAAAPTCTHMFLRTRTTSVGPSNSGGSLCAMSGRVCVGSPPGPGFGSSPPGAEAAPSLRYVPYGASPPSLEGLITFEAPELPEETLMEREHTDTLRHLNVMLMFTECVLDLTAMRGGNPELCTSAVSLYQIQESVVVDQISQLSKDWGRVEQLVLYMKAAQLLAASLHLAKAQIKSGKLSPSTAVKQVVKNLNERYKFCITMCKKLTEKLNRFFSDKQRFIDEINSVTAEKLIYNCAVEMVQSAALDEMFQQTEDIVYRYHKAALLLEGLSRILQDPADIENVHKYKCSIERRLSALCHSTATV

[2] = target: T2, Serine/threonine-protein kinase D2 (Homo sapiens) (UniProt Q9BZL6); assay: Selectivity interaction (ActivX KiNativ screen (kinase selectivity in THP-1 cell lysates)) EUB0000639a PRKD2; type: subcellular; conditions: lysate, at 0.04 µM
T2 sequence (whole entry): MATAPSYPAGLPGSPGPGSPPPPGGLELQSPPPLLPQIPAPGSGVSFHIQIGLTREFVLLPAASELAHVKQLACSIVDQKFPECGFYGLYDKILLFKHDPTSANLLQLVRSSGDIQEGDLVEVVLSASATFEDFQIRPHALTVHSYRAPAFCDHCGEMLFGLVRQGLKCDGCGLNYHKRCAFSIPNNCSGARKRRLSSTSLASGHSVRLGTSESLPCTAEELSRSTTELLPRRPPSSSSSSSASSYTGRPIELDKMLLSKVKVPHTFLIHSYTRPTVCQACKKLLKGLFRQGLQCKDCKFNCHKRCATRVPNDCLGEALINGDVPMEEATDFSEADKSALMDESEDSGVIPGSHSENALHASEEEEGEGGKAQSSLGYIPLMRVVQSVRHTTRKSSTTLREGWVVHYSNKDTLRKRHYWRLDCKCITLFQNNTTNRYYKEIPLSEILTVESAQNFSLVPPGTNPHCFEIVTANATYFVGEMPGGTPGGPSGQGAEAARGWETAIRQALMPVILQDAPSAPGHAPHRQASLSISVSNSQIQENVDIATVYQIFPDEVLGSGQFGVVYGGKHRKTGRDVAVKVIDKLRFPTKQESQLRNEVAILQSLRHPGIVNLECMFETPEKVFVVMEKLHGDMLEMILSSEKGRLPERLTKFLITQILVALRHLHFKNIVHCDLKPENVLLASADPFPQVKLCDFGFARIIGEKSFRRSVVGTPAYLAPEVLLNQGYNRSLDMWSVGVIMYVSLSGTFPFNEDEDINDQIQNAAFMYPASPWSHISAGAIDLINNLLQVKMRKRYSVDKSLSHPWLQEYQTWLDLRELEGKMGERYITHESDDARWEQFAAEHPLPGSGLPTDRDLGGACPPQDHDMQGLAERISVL

[3] = target: Dual specificity mitogen-activated protein kinase kinase 2 (Homo sapiens) (UniProt P36507); assay: Selectivity interaction (ActivX KiNativ screen (kinase selectivity in THP-1 cell lysates)) EUB0000639a MAP2K2; type: subcellular; conditions: lysate, at 0.01 µM
[4] = target: Proto-oncogene tyrosine-protein kinase receptor Ret (Homo sapiens, UniProt P07949); assay: Selectivity interaction (Kinase panel (Invitrogen)) EUB0000639a RET; conditions: at 200 nM
Proto-oncogene tyrosine-protein kinase receptor Ret, sequence (P07949 whole entry): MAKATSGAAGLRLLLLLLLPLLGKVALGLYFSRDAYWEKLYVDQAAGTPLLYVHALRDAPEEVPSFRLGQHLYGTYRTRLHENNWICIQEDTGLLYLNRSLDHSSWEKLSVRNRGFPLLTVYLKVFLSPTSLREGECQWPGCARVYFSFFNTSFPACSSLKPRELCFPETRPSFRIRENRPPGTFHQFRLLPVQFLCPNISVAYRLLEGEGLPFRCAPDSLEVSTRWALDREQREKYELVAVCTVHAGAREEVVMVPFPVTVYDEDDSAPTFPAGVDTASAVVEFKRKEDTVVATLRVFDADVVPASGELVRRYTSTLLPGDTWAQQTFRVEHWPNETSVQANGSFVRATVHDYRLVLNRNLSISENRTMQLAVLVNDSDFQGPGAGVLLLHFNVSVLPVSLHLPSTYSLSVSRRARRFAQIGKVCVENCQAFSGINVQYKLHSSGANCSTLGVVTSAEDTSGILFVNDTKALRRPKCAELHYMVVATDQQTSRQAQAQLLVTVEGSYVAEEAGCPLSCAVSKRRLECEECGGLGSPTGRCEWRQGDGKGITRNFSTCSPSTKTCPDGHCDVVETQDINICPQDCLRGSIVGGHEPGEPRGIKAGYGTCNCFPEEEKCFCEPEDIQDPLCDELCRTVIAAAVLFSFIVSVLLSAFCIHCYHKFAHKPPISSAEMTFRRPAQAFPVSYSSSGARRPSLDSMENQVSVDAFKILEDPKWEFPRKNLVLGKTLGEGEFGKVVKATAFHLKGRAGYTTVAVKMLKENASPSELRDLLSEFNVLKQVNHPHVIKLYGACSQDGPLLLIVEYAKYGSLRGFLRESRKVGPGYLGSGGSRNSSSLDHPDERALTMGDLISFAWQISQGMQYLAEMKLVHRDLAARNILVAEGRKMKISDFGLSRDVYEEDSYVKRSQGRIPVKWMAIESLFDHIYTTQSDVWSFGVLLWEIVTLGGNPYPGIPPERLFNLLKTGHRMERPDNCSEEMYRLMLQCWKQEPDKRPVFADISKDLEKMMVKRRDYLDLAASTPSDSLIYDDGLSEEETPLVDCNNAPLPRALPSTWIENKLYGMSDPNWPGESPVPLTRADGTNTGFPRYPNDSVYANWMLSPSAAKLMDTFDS

[5] = target: Ribosomal protein S6 kinase beta-1 (Homo sapiens, UniProt P23443); assay: Selectivity interaction (KinomeScan (DiscoverX)) EUB0000618a RPS6KB1; conditions: at 10 µM
Ribosomal protein S6 kinase beta-1, sequence (P23443 whole entry, looked up): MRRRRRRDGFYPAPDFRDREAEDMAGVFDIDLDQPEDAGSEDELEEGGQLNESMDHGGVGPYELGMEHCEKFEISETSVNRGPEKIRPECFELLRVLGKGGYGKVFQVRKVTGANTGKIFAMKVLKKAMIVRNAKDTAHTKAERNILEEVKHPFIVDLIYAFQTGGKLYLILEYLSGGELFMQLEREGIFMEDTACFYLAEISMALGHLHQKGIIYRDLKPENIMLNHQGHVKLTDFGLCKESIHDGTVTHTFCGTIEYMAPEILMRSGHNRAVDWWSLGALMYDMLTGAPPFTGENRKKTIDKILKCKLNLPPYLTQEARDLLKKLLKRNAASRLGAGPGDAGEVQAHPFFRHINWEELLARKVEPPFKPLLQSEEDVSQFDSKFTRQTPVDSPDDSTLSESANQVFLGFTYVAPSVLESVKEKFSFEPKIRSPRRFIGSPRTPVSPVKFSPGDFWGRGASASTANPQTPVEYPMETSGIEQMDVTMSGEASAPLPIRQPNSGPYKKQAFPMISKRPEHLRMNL

[6] = target: Ephrin type-A receptor 7 (Homo sapiens) (UniProt Q15375); conditions: at 10 µM
Ephrin type-A receptor 7 (Homo sapiens), sequence (Q15375 28-998 limits assumed): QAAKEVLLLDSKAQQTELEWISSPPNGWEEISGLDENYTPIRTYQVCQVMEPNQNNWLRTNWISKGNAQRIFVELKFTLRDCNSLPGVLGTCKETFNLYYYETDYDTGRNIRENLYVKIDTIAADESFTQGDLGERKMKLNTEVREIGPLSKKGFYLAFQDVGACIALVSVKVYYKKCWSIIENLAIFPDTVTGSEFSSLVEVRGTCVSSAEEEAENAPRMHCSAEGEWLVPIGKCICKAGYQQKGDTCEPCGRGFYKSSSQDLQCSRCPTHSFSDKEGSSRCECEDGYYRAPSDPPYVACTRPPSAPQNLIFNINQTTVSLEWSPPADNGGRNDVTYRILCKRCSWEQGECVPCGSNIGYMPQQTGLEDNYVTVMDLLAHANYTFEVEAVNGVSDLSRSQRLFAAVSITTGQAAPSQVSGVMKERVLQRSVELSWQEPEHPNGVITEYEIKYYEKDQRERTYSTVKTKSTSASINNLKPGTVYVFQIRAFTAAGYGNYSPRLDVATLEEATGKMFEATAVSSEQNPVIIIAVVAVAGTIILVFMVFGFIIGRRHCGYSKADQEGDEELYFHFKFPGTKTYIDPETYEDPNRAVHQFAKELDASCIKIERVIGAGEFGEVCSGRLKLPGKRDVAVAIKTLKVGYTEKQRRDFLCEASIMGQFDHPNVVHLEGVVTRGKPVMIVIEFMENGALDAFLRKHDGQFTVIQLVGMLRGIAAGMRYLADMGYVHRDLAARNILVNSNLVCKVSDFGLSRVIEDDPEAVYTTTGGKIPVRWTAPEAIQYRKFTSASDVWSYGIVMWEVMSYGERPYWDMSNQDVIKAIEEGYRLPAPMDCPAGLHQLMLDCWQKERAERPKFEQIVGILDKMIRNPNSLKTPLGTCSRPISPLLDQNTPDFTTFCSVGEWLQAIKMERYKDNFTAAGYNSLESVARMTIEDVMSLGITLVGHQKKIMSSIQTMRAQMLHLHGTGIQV

[7] = target: Tyrosine-protein kinase Fer (Homo sapiens) (UniProt P16591); assay: Selectivity interaction (ActivX KiNativ screen (ex vivo kinase selectivity in human PBMCs)) EUB0001619a FER; type: cell-based; conditions: PBMC, at 1 µM
Tyrosine-protein kinase Fer (Homo sapiens), sequence (P16591 whole entry, looked up): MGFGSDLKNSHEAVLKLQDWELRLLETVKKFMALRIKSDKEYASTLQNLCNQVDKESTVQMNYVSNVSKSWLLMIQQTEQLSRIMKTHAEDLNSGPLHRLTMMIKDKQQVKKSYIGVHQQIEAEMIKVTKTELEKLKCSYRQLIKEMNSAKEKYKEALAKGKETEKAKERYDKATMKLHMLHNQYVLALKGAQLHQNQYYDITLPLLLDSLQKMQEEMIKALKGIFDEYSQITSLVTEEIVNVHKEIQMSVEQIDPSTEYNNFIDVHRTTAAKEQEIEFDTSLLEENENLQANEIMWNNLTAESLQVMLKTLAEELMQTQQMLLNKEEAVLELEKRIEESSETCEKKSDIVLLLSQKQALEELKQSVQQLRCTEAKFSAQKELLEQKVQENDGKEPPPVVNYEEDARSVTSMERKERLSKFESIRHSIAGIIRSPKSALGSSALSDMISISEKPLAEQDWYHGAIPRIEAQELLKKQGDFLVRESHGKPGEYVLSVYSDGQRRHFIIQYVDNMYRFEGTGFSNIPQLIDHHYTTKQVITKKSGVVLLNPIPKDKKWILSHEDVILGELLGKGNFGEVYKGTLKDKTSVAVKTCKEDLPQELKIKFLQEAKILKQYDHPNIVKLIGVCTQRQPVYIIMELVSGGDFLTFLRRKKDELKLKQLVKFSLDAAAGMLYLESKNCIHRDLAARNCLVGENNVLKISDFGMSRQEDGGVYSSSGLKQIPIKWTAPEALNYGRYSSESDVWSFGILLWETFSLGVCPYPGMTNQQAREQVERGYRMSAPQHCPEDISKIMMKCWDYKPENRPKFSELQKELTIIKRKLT

[8] = target: T3, Serine/threonine-protein kinase Nek2 (Homo sapiens) (UniProt P51955); assay: Selectivity interaction (Upstate Kinase Profiler service (Millipore)) EUB0000056c NEK2; conditions: at 1 µM
T3 sequence (whole entry): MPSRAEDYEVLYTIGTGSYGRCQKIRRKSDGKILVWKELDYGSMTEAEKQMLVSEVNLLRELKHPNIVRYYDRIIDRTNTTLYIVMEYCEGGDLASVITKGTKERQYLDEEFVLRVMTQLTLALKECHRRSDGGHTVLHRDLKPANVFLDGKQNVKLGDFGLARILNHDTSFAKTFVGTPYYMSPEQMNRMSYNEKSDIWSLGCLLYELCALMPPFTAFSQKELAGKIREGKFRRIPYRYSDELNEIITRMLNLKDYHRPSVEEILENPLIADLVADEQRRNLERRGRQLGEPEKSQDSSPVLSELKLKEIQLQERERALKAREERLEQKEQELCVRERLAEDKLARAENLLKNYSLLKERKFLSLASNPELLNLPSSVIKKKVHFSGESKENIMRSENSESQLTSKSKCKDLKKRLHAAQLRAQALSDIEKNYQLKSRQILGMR

[9] = target: Insulin-like growth factor 1 receptor (Homo sapiens, UniProt P08069); assay: Selectivity interaction (SelectScreen profiling (Invitrogen)) EUB0000607a IGF1R; conditions: at 2 µM
Insulin-like growth factor 1 receptor, sequence (P08069 31-736 limits assumed): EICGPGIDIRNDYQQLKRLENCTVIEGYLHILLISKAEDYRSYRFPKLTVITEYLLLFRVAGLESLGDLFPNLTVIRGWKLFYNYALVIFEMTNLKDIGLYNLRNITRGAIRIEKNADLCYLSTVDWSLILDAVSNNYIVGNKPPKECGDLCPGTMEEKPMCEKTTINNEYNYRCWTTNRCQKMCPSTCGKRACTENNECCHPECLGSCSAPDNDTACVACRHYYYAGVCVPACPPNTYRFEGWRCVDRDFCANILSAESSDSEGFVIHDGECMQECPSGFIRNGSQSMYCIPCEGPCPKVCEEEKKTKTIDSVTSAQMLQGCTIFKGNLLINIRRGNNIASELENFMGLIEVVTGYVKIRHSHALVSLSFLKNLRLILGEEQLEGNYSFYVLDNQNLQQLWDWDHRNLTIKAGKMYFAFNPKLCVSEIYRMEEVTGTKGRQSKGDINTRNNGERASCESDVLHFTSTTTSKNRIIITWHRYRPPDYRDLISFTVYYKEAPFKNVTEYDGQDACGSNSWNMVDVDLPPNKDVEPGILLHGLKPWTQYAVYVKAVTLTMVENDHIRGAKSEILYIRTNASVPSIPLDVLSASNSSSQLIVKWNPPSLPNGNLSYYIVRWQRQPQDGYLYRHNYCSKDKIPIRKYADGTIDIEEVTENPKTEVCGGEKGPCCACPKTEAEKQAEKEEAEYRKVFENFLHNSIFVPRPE
Insulin-like growth factor 1 receptor, sequence (P08069 741-1367 limits assumed): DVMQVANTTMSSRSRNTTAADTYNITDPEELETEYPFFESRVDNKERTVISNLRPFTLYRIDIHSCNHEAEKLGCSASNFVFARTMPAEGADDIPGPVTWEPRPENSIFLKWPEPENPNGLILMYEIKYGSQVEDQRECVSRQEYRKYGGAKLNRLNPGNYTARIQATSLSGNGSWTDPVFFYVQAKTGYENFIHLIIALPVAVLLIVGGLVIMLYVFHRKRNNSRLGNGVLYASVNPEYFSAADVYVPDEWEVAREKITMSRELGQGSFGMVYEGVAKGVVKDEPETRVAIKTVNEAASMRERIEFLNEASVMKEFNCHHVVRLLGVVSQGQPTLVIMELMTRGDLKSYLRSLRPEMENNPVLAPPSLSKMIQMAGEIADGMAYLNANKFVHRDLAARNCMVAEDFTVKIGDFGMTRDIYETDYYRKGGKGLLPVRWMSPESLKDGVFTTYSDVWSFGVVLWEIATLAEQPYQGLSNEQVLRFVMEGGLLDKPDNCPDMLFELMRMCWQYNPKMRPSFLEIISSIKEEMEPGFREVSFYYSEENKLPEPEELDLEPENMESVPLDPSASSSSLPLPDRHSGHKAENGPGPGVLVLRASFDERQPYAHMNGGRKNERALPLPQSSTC

For `COc1cc(N(C)c2ccnc3ccc(C(F)(F)F)cc23)cc(OC)c1OC`, the % binding [1] was 86%.
In the case of `CC[C@@H]1[C@H](F)C(=O)N[C@@H]1COc1nccc2cc(C(N)=O)c(OC)cc12` [ZIMLOVISERTIB], the % of inhibition [2] is reported as -3.5%, the % of inhibition [3] is reported as -2% and the % of inhibition [4] is reported as 58.6%.
With `O[C@H]1CC[C@H](Nc2ncc3nc(Nc4c(F)cc(F)cc4F)n([C@H]4CCOC4)c3n2)CC1` the % of control [5] was 80%.
For `Cc1cc([C@@H](C)Nc2ccccc2C(=O)O)c2nc(N3CCOCC3)cc(=O)n2c1` [AZD-6482], the % of control [6] was 89%.
For `N#Cc1cccc(-c2c[nH]c3ncnc(N4CCOCC4)c23)c1`, the % of inhibition [7] was 2%.
Compound `Cc1ccc(-c2ccc3c(ccc4sc5c(c43)NC[C@@H](C)NC5=O)n2)cn1` has a % of inhibition [8] of -7%.
`CNC(=O)Nc1ccc(-c2nc(N3CC4CCC(C3)O4)c3cnn(C4CCC5(CC4)OCCO5)c3n2)cc1` gave a % of inhibition [9] of 1%.
